pIC50: −log10 of the molar value. In brackets after ≈: the same amount, converted by molar mass. Where two headings read alike, the source gives them in different places.
Columns and labels:
Assay type in all cases: cell-based
[1] = test system: J774A.1 macrophage cell line (ATCC TIB-67); experiment: Cytotoxicity assay (resazurin); details: Mus musculus, J774.A1
[2] = test system: three M. tuberculosis strains (H37Rv, INHR, RMPR); experiment: microbe, parasite or virus in culture; details: Mycobacterium tuberculosis, stated for all three strains together
[3] = test system: M. tuberculosis pan-susceptible H37Rv (ATCC 27294); experiment: microbe, parasite or virus in culture; details: REMA, 7 days at 37°C
[4] = Mycobacterium tuberculosis, 168 h, read-out: MIC
[5] = J774A.1 cells, concentration maintaining viability of 50% of the cells
[6] = Mycobacterium tuberculosis, 168 h

SMILES	pIC50 [1]	MIC [2]	MIC [3, 4]	pIC50 [1, 5]	MIC [3, 6]	MIC ([3]; read-out: MIC)
O=C1C(Cl)=C(Cl)C(=O)c2ccccc21 [Compound 1, 2,3-Dichloronaphthalene-1,4-dione]	3.99	111 µM (≈ 25.1 µg/mL)	111 µM (≈ 25.1 µg/mL)	–	–	–
CC1(C)CCC2=C(O1)C(=O)c1ccccc1C2=O [Compound 2, 2,2-Dimethyl-3,4-dihydro-2H-benzo[g]chromene-5, 10-dione]	–	103 to 207 µM (≈ 25 to 50.1 µg/mL)	103 µM (≈ 25 µg/mL)	3.55	–	–
CC1(C)CC2=C(O1)C(=O)c1ccccc1C2=O [Compound 3, 2,2-Dimethyl-2,3-dihydronaphtho[2,3-b]furan-4,9-dione]	–	54.8 µM (≈ 12.5 µg/mL)	54.8 µM (≈ 12.5 µg/mL)	< 3.06	–	–
C=CCOC1=CC(=O)c2ccccc2C1=O [Compound 4, 2-(Allyloxy)naphthalene-1,4-dione]	–	–	–	3.76	58.4 µM (≈ 12.5 µg/mL)	–
NC1=CC(=O)c2ccccc2C1=O [Compound 5, 2-Aminonaphthalene-1,4-dione]	< 2.94	–	72.2 µM (≈ 12.5 µg/mL)	–	–	–
O=C1C=C(Nc2ccccc2)C(=O)c2ccccc21 [Compound 6, 2-(Phenylamino)naphthalene-1,4-dione]	–	–	–	< 3.10	110 µM (≈ 27.5 µg/mL)	100.4 µM (≈ 25 µg/mL)
NNC(=O)c1ccncc1 [INH, isoniazid, reference compound]	–	–	0.438 µM (≈ 0.0601 µg/mL)	2.43	–	–
CO[C@H]1/C=C/O[C@@]2(C)Oc3c(C)c(O)c4c(O)c(c(/C=N/N5CCN(C)CC5)c(O)c4c3C2=O)NC(=O)/C(C)=C\C=C\[C@H](C)[C@H](O)[C@@H](C)[C@@H](O)[C@@H](C)[C@H](OC(C)=O)[C@@H]1C [RIF, rifampicin, reference compound]	–	–	0.608 µM (≈ 0.5 µg/mL)	< 2.60	–	–

Reference: PMC5900025, “Naphthoquinone Derivatives as Scaffold to Develop New Drugs for Tuberculosis Treatment” (Frontiers in Microbiology, 2018)
